In patent US10800816B2 (Baxalta GmbH, priority 2012, dated 2020):
Bridges are numbered along the chain shown (N, C = ends). [ ]: non-standard residue; d: D form. Aib = CC(C)(N)C(=O)O; Sar = CNCC(=O)O

system: not listed separately; assay: FIGURE 78M

Compound	24 h Human Plasma Stability | Mean Remaining [%]
CC(=O)N[C@@H](Cc1ccccc1)C(=O)N[C@@H](CCC(N)=O)C(=O)N[C@@H](CO)C(=O)N[C@@H](CCCCN)C(=O)N1CCC[C@@H]1C(=O)N[C@@H](CC(N)=O)C(=O)N[C@H](C(=O)N[C@@H](Cc1c[nH]cn1)C(=O)N[C@H](C(=O)N[C@@H](CS)C(=O)NCC(=O)N[C@@H](Cc1ccc(O)cc1)C(=O)N[C@@H](Cc1ccccc1)C(=O)N[C@@H](CCC(=O)O)C(=O)N[C@@H](CCCNC(=N)N)C(=O)N[C@@H](CC(C)C)C(=O)NC(C)(C)C(=O)N[C@@H](C)C(=O)N[C@@H](CCCCN)C(=O)N[C@@H](CC(C)C)C(N)=O)C(C)C)C(C)C [JBT00002371]	31.20
CC[C@H](NC(=O)[C@H](Cc1c[nH]cn1)NC(=O)[C@@H](NC(=O)[C@H](CC(N)=O)NC(=O)[C@H]1CCCN1C(=O)[C@H](CCCCN)NC(=O)[C@H](CO)NC(=O)[C@H](CCC(N)=O)NC(=O)[C@H](Cc1ccccc1)NC(C)=O)C(C)C)C(=O)N[C@@H](CC(=O)O)C(=O)NCC(=O)N[C@@H](Cc1ccc(O)cc1)C(=O)N[C@@H](Cc1ccccc1)C(=O)N[C@@H](CCC(=O)O)C(=O)N[C@@H](CCCNC(=N)N)C(=O)N[C@@H](CC(C)C)C(=O)NC(C)(C)C(=O)N[C@@H](C)C(=O)N[C@@H](CCCCN)C(=O)N[C@@H](CC(C)C)C(=O)N[C@@H](CSC1CC(=O)N(CC)C1=O)C(N)=O (stereo partly drawn) [JBT00002381, Ac-FQSKpNVH-Abu-DGYFERL-Aib-AKLC(NEM)-NH2]	17.30
CCN1C(=O)CC(SC[C@H](NC(=O)[C@H](CC(C)C)NC(=O)[C@H](CCCCN)NC(=O)[C@H](C)NC(=O)C(C)(C)NC(=O)[C@H](CC(C)C)NC(=O)[C@H](CCCNC(=N)N)NC(=O)[C@H](CCC(=O)O)NC(=O)[C@H](Cc2ccccc2)NC(=O)[C@H](Cc2ccc(O)cc2)NC(=O)CNC(=O)[C@H](CC(=O)O)NC(=O)[C@H](CC(F)(F)F)NC(=O)[C@H](Cc2c[nH]cn2)NC(=O)[C@@H](NC(=O)[C@H](CC(N)=O)NC(=O)[C@H]2CCCN2C(=O)[C@H](CCCCN)NC(=O)[C@H](CO)NC(=O)[C@H](CCC(N)=O)NC(=O)[C@H](Cc2ccccc2)NC(C)=O)C(C)C)C(N)=O)C1=O (stereo partly drawn) [JBT00002382, Ac-FQSKpNVH-(L-2-Amino-4,4,4-trifluorobutyric acid)- DGYFERL-Aib-AKLC(NEM)-NH2]	20.50
CCN1C(=O)CC(SC[C@H](NC(=O)[C@H](CC(C)C)NC(=O)[C@H](CCCCN)NC(=O)[C@H](C)NC(=O)C(C)(C)NC(=O)[C@H](CC(C)C)NC(=O)[C@H](CCCNC(=N)N)NC(=O)[C@H](CCC(=O)O)NC(=O)[C@H](Cc2ccccc2)NC(=O)[C@H](Cc2ccc(O)cc2)NC(=O)CNC(=O)[C@H](CC(=O)O)NC(=O)[C@@H](NC(=O)[C@H](Cc2c[nH]cn2)NC(=O)[C@@H](NC(=O)[C@H](CC(N)=O)NC(=O)[C@H]2CCCN2C(=O)[C@H](CCCCN)NC(=O)[C@H](CO)NC(=O)[C@H](CCC(N)=O)NC(=O)[C@H](Cc2ccccc2)NC(C)=O)C(C)C)C2CCCC2)C(N)=O)C1=O (stereo partly drawn) [JBT00002383, Ac-FQSKpNVH-Cpg-DGYFERL-Aib-AKLC(NEM)-NH2]	31.00

system: TFPI; assay: Extrinsic Tenase Inhibition assay | % Inhibition @ 2.5μM

Compound	Extrinsic Tenase Inhibition assay | % Inhibition @ […] [%]
Ac-FQSK-Nmg-NVFVAGYFERLRAKL-NH2 (SEQ ID NO: 161) (Ac-FQSK[Sar]NVFVAGYFERLRAKL-NH2; SMILES CC(=O)N[C@@H](Cc1ccccc1)C(=O)N[C@@H](CCC(N)=O)C(=O)N[C@@H](CO)C(=O)N[C@@H](CCCCN)C(=O)N(C)CC(=O)N[C@@H](CC(N)=O)C(=O)N[C@H](C(=O)N[C@@H](Cc1ccccc1)C(=O)N[C@H](C(=O)N[C@@H](C)C(=O)NCC(=O)N[C@@H](Cc1ccc(O)cc1)C(=O)N[C@@H](Cc1ccccc1)C(=O)N[C@@H](CCC(=O)O)C(=O)N[C@@H](CCCNC(=N)N)C(=O)N[C@@H](CC(C)C)C(=O)N[C@@H](CCCNC(=N)N)C(=O)N[C@@H](C)C(=O)N[C@@H](CCCCN)C(=O)N[C@@H](CC(C)C)C(N)=O)C(C)C)C(C)C) [JBT1396]	34
Ac-FQSK-Nmg-NVFVTGYFERL-Aib-AKL-NH2 (SEQ ID NO: 165) (Ac-FQSK[Sar]NVFVTGYFERL[Aib]AKL-NH2; SMILES CC(=O)N[C@@H](Cc1ccccc1)C(=O)N[C@@H](CCC(N)=O)C(=O)N[C@@H](CO)C(=O)N[C@@H](CCCCN)C(=O)N(C)CC(=O)N[C@@H](CC(N)=O)C(=O)N[C@H](C(=O)N[C@@H](Cc1ccccc1)C(=O)N[C@H](C(=O)N[C@H](C(=O)NCC(=O)N[C@@H](Cc1ccc(O)cc1)C(=O)N[C@@H](Cc1ccccc1)C(=O)N[C@@H](CCC(=O)O)C(=O)N[C@@H](CCCNC(=N)N)C(=O)N[C@@H](CC(C)C)C(=O)NC(C)(C)C(=O)N[C@@H](C)C(=O)N[C@@H](CCCCN)C(=O)N[C@@H](CC(C)C)C(N)=O)[C@@H](C)O)C(C)C)C(C)C) [JBT1585]	48
Ac-FQSK-Nmg-NVFVTGYFERLRAKL-NH2 (SEQ ID NO: 125) (Ac-FQSK[Sar]NVFVTGYFERLRAKL-NH2; SMILES CC(=O)N[C@@H](Cc1ccccc1)C(=O)N[C@@H](CCC(N)=O)C(=O)N[C@@H](CO)C(=O)N[C@@H](CCCCN)C(=O)N(C)CC(=O)N[C@@H](CC(N)=O)C(=O)N[C@H](C(=O)N[C@@H](Cc1ccccc1)C(=O)N[C@H](C(=O)N[C@H](C(=O)NCC(=O)N[C@@H](Cc1ccc(O)cc1)C(=O)N[C@@H](Cc1ccccc1)C(=O)N[C@@H](CCC(=O)O)C(=O)N[C@@H](CCCNC(=N)N)C(=O)N[C@@H](CC(C)C)C(=O)N[C@@H](CCCNC(=N)N)C(=O)N[C@@H](C)C(=O)N[C@@H](CCCCN)C(=O)N[C@@H](CC(C)C)C(N)=O)[C@@H](C)O)C(C)C)C(C)C) [JBT1155]	32
Ac-FQSKGNVFvFGYFERLRAKL-NH2 (SEQ ID NO: 936) (Ac-FQSKGNVF[dV]FGYFERLRAKL-NH2; SMILES CC(=O)N[C@@H](Cc1ccccc1)C(=O)N[C@@H](CCC(N)=O)C(=O)N[C@@H](CO)C(=O)N[C@@H](CCCCN)C(=O)NCC(=O)N[C@@H](CC(N)=O)C(=O)N[C@H](C(=O)N[C@@H](Cc1ccccc1)C(=O)N[C@@H](C(=O)N[C@@H](Cc1ccccc1)C(=O)NCC(=O)N[C@@H](Cc1ccc(O)cc1)C(=O)N[C@@H](Cc1ccccc1)C(=O)N[C@@H](CCC(=O)O)C(=O)N[C@@H](CCCNC(=N)N)C(=O)N[C@@H](CC(C)C)C(=O)N[C@@H](CCCNC(=N)N)C(=O)N[C@@H](C)C(=O)N[C@@H](CCCCN)C(=O)N[C@@H](CC(C)C)C(N)=O)C(C)C)C(C)C) [JBT1149]	0
Ac-FQSKKNVFFFGYFERLRAKL-NH2 (SEQ ID NO: 735) [JBT1152]	0
Ac-FQSKKNVFVFGYFERLRAKD-NH2 (SEQ ID NO: 937) [JBT1151]	0
Ac-FQSKpNVFVFGYFERLRAKL-NH2 (SEQ ID NO: 129) (Ac-FQSK[dP]NVFVFGYFERLRAKL-NH2; SMILES CC(=O)N[C@@H](Cc1ccccc1)C(=O)N[C@@H](CCC(N)=O)C(=O)N[C@@H](CO)C(=O)N[C@@H](CCCCN)C(=O)N1CCC[C@@H]1C(=O)N[C@@H](CC(N)=O)C(=O)N[C@H](C(=O)N[C@@H](Cc1ccccc1)C(=O)N[C@H](C(=O)N[C@@H](Cc1ccccc1)C(=O)NCC(=O)N[C@@H](Cc1ccc(O)cc1)C(=O)N[C@@H](Cc1ccccc1)C(=O)N[C@@H](CCC(=O)O)C(=O)N[C@@H](CCCNC(=N)N)C(=O)N[C@@H](CC(C)C)C(=O)N[C@@H](CCCNC(=N)N)C(=O)N[C@@H](C)C(=O)N[C@@H](CCCCN)C(=O)N[C@@H](CC(C)C)C(N)=O)C(C)C)C(C)C) [JBT1162]	51
Ac-[CFQSKGNVFVDGYFERLC]AKL-NH2 (SEQ ID NO: 402) (Ac-CFQSKGNVFVDGYFERLCAKL-NH2; disulfide 1-18) [JBT1592]	11
